In patent US6524789B1, “Human neuronal nicotinic acetylcholine receptor compositions and methods employing same” (Merck & Co., Inc., priority 1995, dated 2003):

Experiments:
PC12 = assay: 86Rb ion-flux assay, positive control cells PC12; assay type: cell-based; conditions: Rattus norvegicus, PC-12, antagonist, 86Rb influx
Protocol: The ^86Rb ion-flux assay is conducted as follows:
1. The night before the experiment, cells are plated at 2×10^6 per well (i.e., 2 ml per well) in a 6-well polylysine-coated plate.
2. The culture medium is decanted and the plate washed with 2 ml of assay buffer (50 mM HEPES, 260 mM sucrose, 5.4 mM KCl, 1.8 mM CaCl2, 0.8 mM MgSO4, 5.5 mM glucose) at room temperature.
3. The assay buffer is decanted and 1 ml of assay buffer, containing 3 μCi/ml ^86Rb, with 5 mM ouabain and agoinist or antagonist in a concentration to effect a maximum response, is added.
4. The plate is incubated on ice at 1° C. for 4 min.
5. The buffer is decanted into a waste container and each well was washed with 3 ml of assay buffer, followed by two washes of 2 ml each.
6. The cells are lysed with 2×0.5 ml of 0.2% SDS per well and transferred to a scintillation vial containing 5 ml of scintillation fluid.
7. The radioactivity contained in each vial 5 is measured and the data calculated.

[1] = molecular target: T1, functional recombinant nAChR (Homo sapiens, UniProt Q15825); assay type: cell-based
T1 construct: A 1,743 bp EcoRI fragment, encoding a full-length nAChR α6 subunit, was isolated from KEα6.3; expressed in transfected cells; host or cells: HEK 293 cells, transiently or stably co-transfected
Description: Activation of the ligand-gated nAChR by agonists leads to an influx of cations, including Ca^++, through the receptor channel. Ca^++ entry into the cell through the channel can induce release of calcium contained in intracellular stores. Monovalent cation entry into the cell through the channel can also result in an increase in cytoplasmic Ca^++ levels through depolarization of the membrane and subsequent activation of voltage-dependent calcium channels. Therefore, methods of detecting transient increases in intracellular calcium concentration can be applied to the analysis of functional nicotinic nAChR expression. One method for measuring intracellular calcium levels relies on calcium-sensitive fluorescent indicators.
Calcium-sensitive indicators, such as fluo-3 (Catalog No. F01241, Molecular Probes, Inc., Eugene, Oreg.), are available as acetoxymethyl esters which are membrane permeable. […] Interaction of the free indicator with calcium results in increased fluorescence of the indicator; therefore, an increase in the intracellular Ca^2+ concentration of cells containing the indicator can be expressed directly as an increase in fluorescence.
HEK cells that are transiently or stably co-transfected with DNA encoding appropriate α and/or β subunits and α6 and β3 subunits are analyzed for expression of functional recombinant nAChR using the automated fluorescent indicator-based assay. […]

untransfected HEK cells = conditions: fluo-3, 200 μM nicotine
Protocol: HEK cells that are transiently or stably co-transfected with DNA encoding appropriate α and/or β subunits and α6 and β3 subunits are analyzed for expression of functional recombinant nAChR using the automated fluorescent indicator-based assay. The assay procedure is as follows. Untransfected HEK cells and HEK cells co-transfected with DNA encoding the appropriate α and β subunits are plated in the wells of a 96-well microtiter dish and loaded with fluo-3 by incubation for 2 hours at 20° C. in a medium containing 20 μM fluo-3, 0.2% Pluronic F-127 in HBS (125 mM NaCl, 5 mM KCl, 1.8 mM CaCl2, 0.62 mM MgSO4, 6 mM glucose, 20 mM HEPES, pH 7.4). The cells are then washed with assay buffer (i.e., HBS). The antagonist d-tubocurarine is added to some of the wells at a final concentration of 10 μM.

T1 sequence (Q15825 31-494): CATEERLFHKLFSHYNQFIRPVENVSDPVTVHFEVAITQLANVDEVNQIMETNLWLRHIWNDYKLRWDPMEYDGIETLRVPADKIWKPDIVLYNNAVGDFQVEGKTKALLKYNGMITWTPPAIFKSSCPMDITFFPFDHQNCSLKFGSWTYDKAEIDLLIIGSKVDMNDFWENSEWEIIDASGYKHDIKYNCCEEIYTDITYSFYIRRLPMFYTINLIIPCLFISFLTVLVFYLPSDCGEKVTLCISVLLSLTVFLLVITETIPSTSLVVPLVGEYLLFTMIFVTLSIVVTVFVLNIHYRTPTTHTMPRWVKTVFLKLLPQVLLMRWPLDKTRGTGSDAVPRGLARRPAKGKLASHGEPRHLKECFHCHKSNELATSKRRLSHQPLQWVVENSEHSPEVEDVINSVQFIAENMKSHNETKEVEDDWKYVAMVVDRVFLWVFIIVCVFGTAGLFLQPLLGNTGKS
T1 sequence (Q05901 25-458 partner limits assumed): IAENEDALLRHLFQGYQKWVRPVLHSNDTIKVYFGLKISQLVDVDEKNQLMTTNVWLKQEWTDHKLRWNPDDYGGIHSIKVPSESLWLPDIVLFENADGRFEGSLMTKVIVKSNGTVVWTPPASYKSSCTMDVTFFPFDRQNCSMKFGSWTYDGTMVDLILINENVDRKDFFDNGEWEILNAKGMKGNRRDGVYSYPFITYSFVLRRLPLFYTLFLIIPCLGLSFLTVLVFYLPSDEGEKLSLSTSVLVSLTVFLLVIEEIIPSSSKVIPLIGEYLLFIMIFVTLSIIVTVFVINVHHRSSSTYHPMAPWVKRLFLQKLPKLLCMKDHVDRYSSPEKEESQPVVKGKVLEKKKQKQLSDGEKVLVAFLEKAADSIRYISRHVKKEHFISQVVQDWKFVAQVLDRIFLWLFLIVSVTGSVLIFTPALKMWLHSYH

CN1[C@@H]2CC[C@H]1C[C@@H](OC(=O)C(CO)c1ccccc1)C2 (stereo partly shown) [atropine]
EC50 (PC12): 12.5 µM

COc1cc2c3cc1Oc1cc(ccc1O)C[C@@H]1c4c(cc(OC)c(O)c4Oc4ccc(cc4)C[C@@H]3N(C)CC2)CC[N+]1(C)C [d-tubocurarine]
nicotine-stimulated increase in fluorescence in cells exposed to antagonist ([1]; co-transfected HEK cells, 10 μM d-tubocurarine, 200 μM nicotine): not observed

CN1CCCC1c1cccnc1 (stereo not shown) [nicotine]
fluorescence after addition of nicotine [1]: increases dramatically
fluorescence after addition of nicotine (untransfected HEK cells): does not change
